# pIC50: −log10 of the molar value.
# Tested on: 156681-154-R-J1 tumor spheroid viability
# Assay: Anticancer human tumor 156681-154-R-J1 patient-derived melanoma cell line growth inhibition
# Settings: spheroids with HUVEC and MSC; for pIC50: curve of first compound; for viability, T/C: stronger effect = lower value
# In short: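 Single agents and combinations were tested on spheroids built from tumor cells plus HUVEC and hMSC, at half-log dilutions starting at or near clinical Cmax, else 10 microM; final DMSO 0.25% (v/v).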
# [1] = second compound 1 µM, first compound 0.0316 µM
# [2] = second compound 1 µM, first compound 0.1 µM
# [3] = second compound 1 µM, first compound 0.316 µM
# [4] = second compound 1 µM, first compound 1 µM
# [5] = second compound 1 µM, first compound 3.16 µM
# [6] = second compound 1 µM, first compound 10 µM
# [7] = second compound 3.16 µM, first compound 0.0316 µM
# [8] = second compound 3.16 µM, first compound 0.1 µM
# [9] = second compound 3.16 µM, first compound 0.316 µM
# [10] = second compound 3.16 µM, first compound 1 µM
# [11] = second compound 3.16 µM, first compound 3.16 µM
# [12] = second compound 3.16 µM, first compound 10 µM
# [13] = second compound 10 µM, first compound 0.0316 µM
# [14] = second compound 10 µM, first compound 0.1 µM
# [15] = second compound 10 µM, first compound 0.316 µM
# [16] = second compound 10 µM, first compound 1 µM
# [17] = second compound 10 µM, first compound 3.16 µM
# [18] = second compound 10 µM, first compound 10 µM
# [19] = second compound 31.6 µM, first compound 0.0316 µM
# [20] = second compound 31.6 µM, first compound 0.1 µM
# [21] = second compound 31.6 µM, first compound 0.316 µM
# [22] = second compound 31.6 µM, first compound 1 µM
# [23] = second compound 31.6 µM, first compound 3.16 µM
# [24] = second compound 31.6 µM, first compound 10 µM
# [25] = second compound 100 µM, first compound 0.0316 µM
# [26] = second compound 100 µM, first compound 0.1 µM
# [27] = second compound 100 µM, first compound 0.316 µM
# [28] = second compound 100 µM, first compound 1 µM
# [29] = second compound 100 µM, first compound 3.16 µM
# [30] = second compound 100 µM, first compound 10 µM
# 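Note: spheroids exposed to compounds for 7 days before readout.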
# 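Throughout, for viability, T/C: percent of vehicle control viability where 100% = DMSO-treated spheroids.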
SMILES,pIC50 (second compound 1 µM),pIC50 (second compound 3.16 µM),pIC50 (second compound 10 µM),pIC50 (second compound 31.6 µM),pIC50 (second compound 100 µM),"viability, T/C [1]","viability, T/C [2]","viability, T/C [3]","viability, T/C [4]","viability, T/C [5]","viability, T/C [6]","viability, T/C [7]","viability, T/C [8]","viability, T/C [9]","viability, T/C [10]","viability, T/C [11]","viability, T/C [12]","viability, T/C [13]","viability, T/C [14]","viability, T/C [15]",further results
CC(C)n1c(=O)n(C)c2cnc3cc(F)c(-c4ccc(OCCCN5CCCCC5)nc4)cc3c21 + Cn1nnc2c(C(N)=O)ncn2c1=O,< 5.00,< 5.00,< 5.00,> 7.50,> 7.50,116%,122%,110%,104%,108%,95.1%,85.2%,83%,111%,123%,98.9%,71.4%,78.5%,63.5%,70.8%,"viability, T/C [16]: 72.4%; viability, T/C [17]: 75.5%; viability, T/C [18]: 64.1%; viability, T/C [19]: 47.2%; viability, T/C [20]: 54.5%; viability, T/C [21]: 53%; viability, T/C [22]: 48.3%; viability, T/C [23]: 52%; viability, T/C [24]: 55.8%; viability, T/C [25]: 51.9%; viability, T/C [26]: 43.3%; viability, T/C [27]: 46.8%; viability, T/C [28]: 48.2%; viability, T/C [29]: 49.5%; viability, T/C [30]: 43.4%"
CC1COCCN1c1cc(-c2ccnn2C)c2ccnc(-c3ccn[nH]3)c2n1 (stereo not given) + Cn1nnc2c(C(N)=O)ncn2c1=O,7.04,7.05,7.35,> 7.50,> 7.50,66.7%,48.5%,32.1%,24.1%,22.5%,20.2%,73.5%,47.7%,26.1%,21.3%,20.2%,18%,54.4%,39.3%,23.2%,"viability, T/C [16]: 19.2%; viability, T/C [17]: 21.9%; viability, T/C [18]: 15.6%; viability, T/C [19]: 38%; viability, T/C [20]: 31.4%; viability, T/C [21]: 18.6%; viability, T/C [22]: 20.2%; viability, T/C [23]: 21.8%; viability, T/C [24]: 16.2%; viability, T/C [25]: 23.6%; viability, T/C [26]: 17.1%; viability, T/C [27]: 12.6%; viability, T/C [28]: 15.3%; viability, T/C [29]: 16%; viability, T/C [30]: 17%"
COc1cc(C)[nH]c(=O)c1CN1CCc2c(Cl)cc(C(OC)C3COC3)c(Cl)c2C1=O (stereo not given) + Cn1nnc2c(C(N)=O)ncn2c1=O,< 5.00,< 5.00,< 5.00,< 5.00,< 5.00,115%,103%,116%,115%,81.2%,88.5%,107%,144%,90.7%,74.9%,127%,130%,84.5%,81%,77.7%,"viability, T/C [16]: 75.2%; viability, T/C [17]: 98.7%; viability, T/C [18]: 67%; viability, T/C [19]: 70.2%; viability, T/C [20]: 56.7%; viability, T/C [21]: 60.4%; viability, T/C [22]: 58.4%; viability, T/C [23]: 54%; viability, T/C [24]: 65.7%; viability, T/C [25]: 45%; viability, T/C [26]: 66%; viability, T/C [27]: 51.7%; viability, T/C [28]: 62.9%; viability, T/C [29]: 68.7%; viability, T/C [30]: 61.4%"
COc1ccc([C@@H](O)c2cc(-c3ncnc4cc(N5CCOCC5)ccc34)c(F)cc2Cl)nn1 + Cn1nnc2c(C(N)=O)ncn2c1=O,< 5.00,< 5.00,5.13,< 5.00,< 5.00,104%,98.4%,86%,70.5%,72.2%,53.3%,101%,111%,77.7%,79.1%,62%,54.8%,71.5%,85.4%,73.8%,"viability, T/C [16]: 66.2%; viability, T/C [17]: 70.7%; viability, T/C [18]: 42.9%; viability, T/C [19]: 60%; viability, T/C [20]: 67.3%; viability, T/C [21]: 71.8%; viability, T/C [22]: 47.2%; viability, T/C [23]: 77.4%; viability, T/C [24]: 45.2%; viability, T/C [25]: 55%; viability, T/C [26]: 55.7%; viability, T/C [27]: 48.1%; viability, T/C [28]: 64.4%; viability, T/C [29]: 54.7%; viability, T/C [30]: 48.4%"
Cc1cc(C)c(CNC(=O)c2cc(-c3ccc(CN4CCOCC4)cc3)cc3c2cnn3C2CCCC2)c(=O)[nH]1 + Cn1nnc2c(C(N)=O)ncn2c1=O,< 5.00,< 5.00,< 5.00,< 5.00,< 5.00,72.6%,107%,90.2%,92.4%,79.6%,82.4%,90.6%,72.7%,83.7%,87.2%,68.8%,84.4%,105%,73.3%,72.4%,"viability, T/C [16]: 67.1%; viability, T/C [17]: 69.2%; viability, T/C [18]: 77.5%; viability, T/C [19]: 74.2%; viability, T/C [20]: 65.7%; viability, T/C [21]: 50.5%; viability, T/C [22]: 63%; viability, T/C [23]: 51.9%; viability, T/C [24]: 58.4%; viability, T/C [25]: 51.2%; viability, T/C [26]: 61.9%; viability, T/C [27]: 67.2%; viability, T/C [28]: 52.3%; viability, T/C [29]: 56%; viability, T/C [30]: 55.6%"
[2H]c1nc(C)nc([2H])c1-c1cc(NC[C@@H](C)c2cccc3c(C(=O)NC)ccnc23)ncn1 + Cn1nnc2c(C(N)=O)ncn2c1=O,< 5.00,< 5.00,< 5.00,< 5.00,5.61,117%,107%,104%,83.8%,92.8%,82.4%,71.8%,101%,114%,112%,120%,87.4%,80%,69.7%,59.7%,"viability, T/C [16]: 63.8%; viability, T/C [17]: 73.3%; viability, T/C [18]: 64.9%; viability, T/C [19]: 54.9%; viability, T/C [20]: 58.6%; viability, T/C [21]: 48.7%; viability, T/C [22]: 47.9%; viability, T/C [23]: 52%; viability, T/C [24]: 54%; viability, T/C [25]: 55.3%; viability, T/C [26]: 47.8%; viability, T/C [27]: 54.4%; viability, T/C [28]: 52.4%; viability, T/C [29]: 48.3%; viability, T/C [30]: 48.9%"
